# Results taken from patent publication US4645840A, “Intermediates for preparing 1,2-dihydropyrido[3,4-b]-pyrazines” (Southern Research Institute, priority 1986, dated 1987).
# Read-outs that look alike come from different tables or passages of the source.
# Key:
# [1] = tested on: several neoplasms; conditions: cited from earlier work
# [2] = tested on: lymphoid leukemia L1210 cells; assay: Mitotic index of cultured lymphoid leukemia L1210 cells; type: cell-based
# [3] = tested on: lymphoid leukemia L1210 cells; assay: Inhibition of proliferation of cultured lymphoid leukemia L1210 cells; type: cell-based; conditions: Mus musculus
# Method: The 1,2-dihydropyrido[3,4-b]pyrazines of this invention are powerful inhibitors of the proliferation of cultured lymphoid luekemia L1210 cells as shown in Table IV.
# (a) Concentration of agent that inhibits proliferation of cultured
# lymphoid leukemia L1210 cells to 50% control growth during 48 hours. G. P
# Wheeler, B. J. Bowdon, J. A. Werline, D. J. Adamson and C. Temple, Jr.,
# [4] = tested on: lymphocytic leukemia P388 cells; assay: Activity against lymphocytic leukemia P388 (10^6 tumor cell implant, i.p.) in mice; type: in vivo; conditions: P388, 10^6 cells i.p.
# Source text: (c) Lymphocytic leukemia P388. R. I. Geran, N. H. Greenbert, M. M.
# MacDonald, A. M. Schumacker, and B. J. Abbott, Cancer Chemother. Rep., 3
# [5] = tested on: Vincristine-resistant line of P388; assay: Activity against vincristine-resistant line of P388 in mice; type: in vivo; conditions: for activity against P388 cells resistant to vincristine: in mice
# Source text: (g) Vincristineresistant line of P388. L. J. Wilkoff and E. A. Dulmadge, […]
# [6] = tested on: Methotrexate-resistant line of P388 (tumor P7); assay: Activity against methotrexate-resistant line of P388 in mice; type: in vivo; conditions: methotrexate-resistant P388, schedule day 1, 100 mg/kg
# Method: (e) Methotrexateresistant line of P388 (designated tumor P7 by the Drug
# Evaluation Branch, National Cancer Institute). In mice with 10^6 cell
# implant (IP), methotrexate at a dose of 2 mg/kg on the qd 1-9 schedule
# gave a 2log cell kill against the sensitive line of P388 and a 2log
# increase in cells against the methotrexateresistant line of P388.
# [7] = tested on: KB cell; conditions: cited from earlier work
# [8] = tested on: Methotrexate-resistant line of P388 (tumor P7); conditions: methotrexate-resistant line of P388, 10^6 cell implant IP, 2 mg/kg, qd 1-9; cited from earlier work
# [9] = tested on: lymphocytic leukemia P388 cells; conditions: sensitive line of P388, 10^6 cell implant IP, 2 mg/kg, qd 1-9; cited from earlier work
# [10] = L1210, inhibits proliferation to 50% control growth during 48 hours (footnote a), read-out: ID50 (the source's name)
smiles,measurement,setting,value
CCOC(=O)Nc1cc2c(c(N)n1)N=C(CN(C)c1ccccc1)CN2 [NSC-181928],activity against several neoplasms,[1],active against several neoplasms
"CCOC(=O)Nc1cc2c(c(N)n1)N=C(CN(C)c1ccc(C(=O)OC)cc1)CN2 [R = 4-CH3 O2 CC6 H4 N(CH3)CH2 (R4 = H), reference compound]",Mitotic Index 12 h,[2]; 0.1 μM,0.44
same,Mitotic Index 12 h,[2]; 0.3 μM,0.61
same,IC50,[3]; [10],58 nM
same,% ILS,"[4]; schedule days 1-9, 25 mg/kg",30%
"CCOC(=O)Nc1cc2c(c(N)n1)N=C(CN(C)c1ccc(OC)cc1)C(C)N2 (centres unmarked) [R = 4-CH3 OC6 H4 N(CH3)CH2 (R4 = CH3), Ethyl 5-Amino-1,2-dihydro-3-[[N-(4-methoxyphenyl)-N-methylamino]methyl]-2-methylpyrido[3,4-b]pyrazine-7-carbamate]",Mitotic Index 12 h,[2]; 0.3 μM,0.66
same,IC50,[3]; [10],5.5 nM
same,% ILS,"[4]; schedule days 1-5, 48 mg/kg",53%
CCOC(=O)Nc1cc2c(c(N)n1)N=C(CN(C)c1ccc(OC)cc1)CN2 [R = 4-CH3 OC6 H4 N(CH3)CH2 (R4 = H)],Mitotic Index 12 h,[2]; 0.03 μM,0.64
same,Mitotic Index 12 h,[2]; 0.3 μM,0.49
same,IC50,[3]; [10],7.9 nM
same,% ILS,"[4]; schedule day 1, 25 mg/kg",133%
same,% ILS,"[4]; schedule day 1, 50 mg/kg",80%
same,activity against P388 cells resistant to vincristine,[5],active in mice against P388 cells that were resistant to vincristine
same,% ILS,"[5]; vincristine-resistant P388, schedule day 1, 25 mg/kg",150%
CCOC(=O)Nc1cc2c(c(N)n1)N=C(CN(C)c1ccc(Cl)cc1)CN2 [R = 4-ClC6 H4 N(CH3)CH2 (R4 = H)],Mitotic Index 12 h,[2]; 0.03 μM,0.71
same,IC50,[3]; [10],14.5 nM
same,% ILS,"[4]; schedule day 1, 100 mg/kg",65%
"CCOC(=O)Nc1cc2c(c(N)n1)N=C(CCc1ccccc1)CN2 [R = C6 H5 CH2 CH2 (R4 = H), Ethyl 5-Amino-1,2-dihydro-3-(2-phenylethyl)pyrido(3,4-b)pyrazine-7-carbamate]",Mitotic Index 24 h,[2]; 0.3 μM,0.33
same,IC50,[3]; [10],13 nM
same,% ILS,"[4]; schedule day 1, 100 mg/kg",29%
"CCOC(=O)Nc1cc2c(c(N)n1)N=C(CN(C)c1ccccc1)CN2 [R = C6 H5 N(CH3)CH2 (R4 = H), Ethyl 5-Amino-1,2-dihydro-3-[(N-methyl-N-phenyl)aminomethyl]pyrido[3,4-b]pyrazine-7-carbamate]",Mitotic Index 12 h,[2]; 0.03 μM,0.77
same,Mitotic Index 24 h,[2]; 0.3 μM,0.80
same,IC50,[3]; [10],8.4 nM
same,% ILS,"[4]; schedule day 1, 100 mg/kg",114%
same,% ILS,[6],66%
same,activity against P388 cells resistant to vincristine,[5],active in mice against P388 cells that were resistant to vincristine
same,% ILS,"[5]; vincristine-resistant P388, schedule day 1, 67 mg/kg",90%
"CC[C@]1(O)C[C@H]2CN(CCc3c([nH]c4ccccc34)[C@@](C(=O)OC)(c3cc4c(cc3OC)N(C=O)[C@H]3[C@@](O)(C(=O)OC)[C@H](OC(C)=O)[C@]5(CC)C=CCN6CC[C@]43[C@@H]65)C2)C1 [Vincristine, reference compound]",IC50,"[3]; L1210, 48 h, read-out: ID50",1 nM
CCOC(=O)Nc1cc2c(c(N)n1)N=C(CN(C)c1ccc(C(=O)OC)cc1)CN2 [drawing 5],cytotoxicity in the KB cell culture screen,[7],showed cytotoxicity in the KB cell culture screen
CN(Cc1cnc2nc(N)nc(N)c2n1)c1ccc(C(=O)N[C@@H](CCC(=O)O)C(=O)O)cc1 [methotrexate],log increase in cells,[8],2 log
same,log cell kill,[9],2 log
